Measured values as given in ChEMBL document CHEMBL5120767, “Phlegmacaritones A and B, a Pair of Serratane-Related Triterpenoid Epimers with an Unprecedented Carbon Skeleton from Phlegmariurus carinatus” (J Nat Prod, 2022).
Calls of active or inactive are those of the source. The rule behind the calls is not given here.

Assays:
Type in all cases: functional, cell-based
ONS [1] = experiment: Effect on human ONS cells assessed as increase in EEA1-marked early endosomes at 5 uM after 24 hrs by fluorescence microscopic analysis
ONS [2] = experiment: Induction of phenotypical changes in human ONS cells at 5 uM after 24 hrs
ONS [3] = experiment: Effect on human ONS cells assessed as increase in LC3b intensity at 5 uM after 24 hrs by fluorescence microscopic analysis
ONS [4] = experiment: Effect on human ONS cells assessed as increase in mitochondrial intensity at 5 uM after 24 hrs by fluorescence microscopic analysis
ONS [5] = experiment: Effect on human ONS cells assessed as increase in alpha-tubulin intensity at 5 uM after 24 hrs by fluorescence microscopic analysis
ONS [6] = experiment: Effect on human ONS cells assessed as decrease in EEA1-marked early endosomes at 5 uM after 24 hrs by fluorescence microscopic analysis
ONS [7] = experiment: Effect on human ONS cells assessed as decrease in alpha-tubulin intensity at 5 uM after 24 hrs by fluorescence microscopic analysis

Structure (SMILES)	Activity (ONS [1])	Activity (ONS [2])	Activity (ONS [3])	Activity (ONS [4])	Activity (ONS [5])	Activity (ONS [6])	Activity (ONS [7])
C[C@@]12CC[C@@H]3[C@](C)(CC[C@@H](O)[C@]3(C)C(=O)O)[C@H]1CC[C@H]([C@@]1(C)CC[C@@H](O)[C@@]3(C)COC(=O)C[C@@H]31)C(=O)C2	Active	–	–	–	–	–	–
C[C@@]12CC[C@@H]3[C@](C)(CC[C@@H](O)[C@]3(C)C(=O)O)[C@H]1CC[C@H]1[C@H](C2)C(=O)C[C@H]2[C@](C)(CO)[C@@H](O)CC[C@@]21C	Active	–	–	–	–	–	–
C[C@H]1CC(=O)[C@]23CCCN4CCC[C@]2(C4)C(=O)C[C@@H]3[C@H]1O	–	Active	–	–	–	–	–
C=C1C=C2C[C@]3(C)CC[C@@H]4[C@](C)(CC[C@@H](O)[C@]4(C)CO)[C@H]3CC[C@@H]2[C@@]2(C)CC[C@@H](O)[C@@](C)(CO)[C@]12C	Active	–	–	–	–	–	–
C=C1C=C2C[C@]3(C)CC[C@@H]4[C@](C)(CC[C@@H](O)[C@]4(C)CO)[C@H]3CC[C@@H]2[C@@]2(C)CC[C@@H](O)[C@](C)(CO)[C@H]12	Active	–	–	–	–	–	–
C=C1C=C2C[C@]3(C)CC[C@H]4C(C)(C)[C@H](O)CC[C@]4(C)[C@H]3CC[C@@H]2[C@@]2(C)CC[C@@H](O)C(C)(C)[C@H]12	–	–	Active	Active	Active	Active	–
CC1(C)[C@@H](O)CC[C@]2(C)[C@H]3CC[C@H]4[C@@](C)(CC[C@@H]5[C@]4(C)CC[C@H](O)[C@]5(C)COC(=O)CCc4ccc(O)c(O)c4)CC3=CC[C@@H]12	–	–	Active	Active	Active	Active	–
CC1(C)[C@H](O)CC[C@]2(C)[C@H]3CC[C@H]4[C@@](C)(CC[C@@H]5[C@]4(C)CC[C@@H](O)[C@]5(C)C(=O)O)C[C@H]3C(=O)C[C@@H]12	–	–	Active	Active	Active	Active	–
C=C1C=C2C[C@]3(C)CC[C@@H]4[C@](C)(CC[C@@H](O)[C@]4(C)C(=O)O)[C@H]3CC[C@@H]2[C@@]2(C)CC[C@@H](O)C(C)(C)[C@H]12	–	–	Active	Active	Active	Active	–
CC1(C)[C@@H](OC(=O)CCc2ccc(O)c(O)c2)CC[C@@]2(C)[C@H]1CC[C@@]1(C)CC3CC[C@H]4C(C)(C)[C@@H](O)CC[C@]4(C)[C@H]3CC[C@@H]12 (stereo not given in full)	–	–	Active	Active	Active	Active	–
CC1(C)[C@@H](OC(=O)CCc2ccc(O)c(O)c2)CC[C@@]2(C)[C@H]1CC[C@@]1(C)CC3CC[C@@H]4[C@](C)(CC[C@@H](O)[C@]4(C)CO)[C@H]3CC[C@@H]12 (stereo not given in full)	–	–	Active	Active	Active	Active	–
CC1(C)[C@H](O)CC[C@]2(C)[C@H]3CC[C@H]4[C@@](C)(CC[C@@H]5[C@]4(C)CC[C@@H](O)[C@]5(C)CO)CC3=CC(=O)[C@@]12C	Active	–	–	–	–	–	–
C=C1C=C2C[C@]3(C)CC[C@H]4C(C)(C)[C@@H](O)CC[C@]4(C)[C@H]3CC[C@@H]2[C@@]2(C)CC[C@@H](O)[C@](C)(CO)[C@H]12	–	Active	Active	Active	Active	Active	–
C=C1C=C2C[C@]3(C)CC[C@@H]4[C@](C)(CC[C@@H](O)[C@]4(C)CO)[C@H]3CC[C@@H]2[C@@]2(C)CC[C@@H](O)C(C)(C)[C@H]12	–	–	Active	Active	Active	Active	–
CC1(C)[C@@H](O)CC[C@]2(C)[C@H]3CC[C@H]4[C@@](C)(CC[C@@H]5[C@]4(C)CC[C@H](OC(=O)CCc4ccc(O)c(O)c4)[C@]5(C)CO)CC3CC[C@@H]12 (stereo not given in full)	Active	–	–	–	–	–	–
CC1(C)[C@H](O)CC[C@]2(C)[C@H]3CC[C@H]4[C@@](C)(CC[C@@H]5[C@]4(C)CC[C@@H](O)[C@]5(C)C(=O)O)C[C@@H]3C(=O)C[C@@H]12	–	Active	Active	Active	–	Active	Active
